Source: US5750566A, “Synthetic excitatory amino acids” (Eli Lilly and Company, priority 1995, dated 1998)
Counter-ions that a name gives are not always drawn.

Assays:
Long Evans rats [1] = test: Auditory startle after nicotine withdrawal; assay type: in vivo, rat (Long Evans)
Description: This cessation of drug dosing elicits an increased startle response to auditory stimuli.
Long Evans rats (200-400 g; Harlan Sprague Dawley, Columbus, Ind.) were individually housed in a controlled environment on a 12 hour light-dark cycle and given free access to food (Purina Rodent Chow) and water. Rats were anesthetized with isoflurane and Alzet osmotic pumps (Alza Corporation) were implanted subcutaneously.
Test compound was dissolved in a vehicle of purified water and neutralized with 5N NaOH to a PH of 7-8 when applicable. […] Nicotine (Research Biochemicals Inc., Natick, Mass.) was dissolved in saline. Control animals received the respective vehicle.
Twelve days following subcutaneous implantation of pumps, rats were anesthetized with isoflurane and the pumps were removed. During withdrawal (following pump removal), the auditory startle response (peak amplitude, Vmax) of individual rats was recorded using San Diego Instruments startle chambers (San Diego, Calif.). Startle sessions consisted of a 5-minute adaptation period at a background noise level of 70±2 dBA immediately followed by 25 presentations of auditory stimuli (120±2 dBA noise, 50 ms duration) presented at 8-second intervals. Peak startle amplitudes were then averaged for all 25 presentations of stimuli for each session and all data are presented here as overall session means. Auditory startle responding was evaluated daily on withdrawal days 1,2,3,4 or 5. Baseline startle responding was evaluated prior to pump removal on day 12.

[2] = tested on: PI-linked metabotropic glutamate receptors; conditions: literature; for L-CCG-I at higher concentrations; cited from earlier work
[3] = tested on: cAMP-linked metabotropic glutamate receptors; conditions: literature; cited from earlier work
[4] = biological target: cAMP-linked metabotropic glutamate receptors (rat hippocampus); test: Inhibition of forskolin-stimulated cAMP formation in rat hippocampus; assay type: biochemical
Description: (§1) The formula I compounds are effective in affecting the cAMP-linked metabotropic glutamate receptors. Representative compounds were tested for their ability to decrease forskolin-stimulated cAMP formation in the rat hippocampus and the rat cerebral cortex, using the procedures described in Schoepp and Johnson. Schoepp and Johnson, Neurochem. Int., 22, 277-283 (1993).

[5] = tested on: metabotropic glutamate receptors; test: Displacement of (1S,3R)-ACPD-sensitive [3H]glutamate binding to rat brain cell membranes (receptor binding); conditions: crude membranes of rat forebrain; compounds 3 and 8 tested as mixture of enantiomers, 6 and 7 as pure enantiomers; read-out: IC50 (concentration that inhibited 50% [3H]glutamate binding)
Description: The binding of [^3 H]glutamate ([^3 H]Glu) was conducted with crude membranes of rat forebrain as described by Schoepp and True. Schoepp and True, Neuroscience Lett., 145, 100-104 (1992); Wright, McDonald, and Schoepp, J. Neurochem., 63, 938-945 (1994). The concentration of the formula I compound that inhibited 50% binding (IC50), or the percent displacement of [^3 H]Glu at a 10 μM or 100 μM concentration of the formula I compound, is shown in Table I.

[6] = biological target: cAMP-linked metabotropic glutamate receptors (rat cerebral cortex); test: Inhibition of forskolin-stimulated cAMP formation in rat cerebral cortex; assay type: biochemical
Description: as §1

Long Evans rats [7] = test: Fear potentiated startle model of anxiety; assay type: in vivo, rat (male Long Evans)
Source text: In the fear potentiated startle model, animals are exposed to a neutral stimulus such as light (conditioned stimulus) with an aversive stimulus such as a shock (unconditioned stimulus). Following conditioning, when the animals are presented with a loud acoustic stimulus, larger startle responses are elicited when the startle stimulus is preceded by light.
(§2) Male Long Evans rats (180-400 g) or male NIH Swiss mice (18-35 g) were obtained from Harlan Sprague-Dawley, Cumberland, Ind., USA and acclimated at least 3 days before testing. Animals were housed at 23±2° C.(relative humidity 30% to 70%) and given Purina Certified Rodent Chow and water ad libitum. The photoperiod was 12 hours of light and 12 hours of dark, with dark onset at approximately 1800 hours.
(§3) Test compounds were dissolved in a vehicle of purified water and neutralized with 5N NaOH to a pH of 7-8 when applicable. […] Control animals received the respective vehicle.
SL-LAB (San Diego Instruments, San Diego, Calif.) chambers were used for conditioning sessions and for the production and recording of startle responses. A classical conditioning procedure was used to produce potentiation of startle responses. Briefly, on the first 2 days, rats were placed into dark startle chambers in which shock grids were installed. […]

Long Evans rats [8] = conditions: statement about clinically proven anxiolytics; cited from earlier work
Long Evans rats [9] = test: Auditory startle after diazepam withdrawal; assay type: in vivo, rat (Long Evans)
mice [10] = conditions: statement about clinically proven anxiolytics; cited from earlier work
mice [11] = test: Automated elevated plus maze model of anxiety; assay type: in vivo, mouse (male NIH Swiss); conditions: five-minute test
Description: The elevated plus maze model is based upon the natural aversion of rodents to height and open spaces.
as §2, §3
Automated Elevated Plus Maze
Construction of the elevated plus-maze was based on a design validated for mice by Lister (1987). The entire maze was made of clear Plexiglas. The maze was comprised of two open arms (30×5×0.25 cm) and two enclosed arms (30×5×15 cm). The floor of each maze arm was corrugated to provide texture. The arms extended from a central platform and angled at 90 degrees from each other. The maze was elevated to a height of 45 cm above the floor and illuminated by red light. Individual infrared photocells were mounted along each arm of the maze to monitor closed, open, or nosepoke activity. Mice were individually placed on the central platform of the maze and the number of closed arm, open arm, and nosepoke (poking head only into open arm from closed arm of maze) counts were recorded and used as a measure of arm entries and time spent on various sections of the maze over a five-minute test period.

## CN1CCC[C@H]1c1cccnc1 [nicotine, reference compound]
Long Evans rats [1]; 0.03 mg/kg, i.p., or higher
  heightened startle response with nicotine replacement dose: did not display the same heightened startle response
Long Evans rats [1]; first three days after cessation, vs control rats receiving water, nicotine 6 mg/kg/day s.c.
  auditory startle responding following cessation of chronic nicotine exposure: significantly increased

## N[C@H](C(=O)O)[C@H]1C[C@@H]1C(=O)O [L-CCG-I, (2S,3S,4S)-2-(carboxycyclopropyl)glycine]
[2]
  activity at PI-linked metabotropic glutamate receptors: activity at PI-linked metabotropic receptors
[3]
  agonist activity at cAMP-linked metabotropic glutamate receptors: selective cAMP-linked metabotropic glutamate receptor agonist

## NC1(C(=O)O)CCC2C(C(=O)O)C21 (single isomer, unassigned; (-)) [Compound 7, (-)-2-Aminobicyclo[3.1.0]hexane-2,6-dicarboxylic Acid]
[4]
  EC50: 29400 ± 3040 nM
[5]
  IC50: 161000 nM
[6]
  EC50: 22000 ± 3400 nM
Long Evans rats [7]; p.o., Inactive = at highest dose tested, 10 mg/kg p.o.
  ED50, fear potentiated startle: Inactive

## CN1C(=O)CN=C(c2ccccc2)c2cc(Cl)ccc21 [Diazepam, reference compound]
Long Evans rats [8]
  reduction of fear (increased startle response) associated with presentation of light: effective at reducing the fear (increased startle response)
Long Evans rats [9]; 30 mg/kg, i.p. daily 60 minutes before evaluation, days 1 through 4, vs diazepam control
  increased reactivity following diazepam cessation with diazepam replacement: did not show increased reactivity
Long Evans rats [9]; replacement 3 and 10 mg/kg, i.p.
  increased startle responding with diazepam replacement: did not block the increased startle responding
Long Evans rats [9]; replacement 3 and 10 mg/kg, i.p., in some instances
  increased reactivity with diazepam replacement: further increased reactivity
Mice [10]
  reduction of fear of open spaces in elevated plus maze: reducing the fear of open spaces
Long Evans rats [7]; Rattus norvegicus, po, read-out: ED50, fear potentiated startle
  ED50: 0.4 mg/kg

## N[C@@]1(C(=O)O)CC[C@@H](C(=O)O)C1 [1S,3R-ACPD, (1S,3R)-1-Aminocyclo-pentane-1,3-dicarboxylic acid]
[2]
  activity at PI-linked metabotropic glutamate receptors: agonist of PI-linked and cAMP-linked metabotropic glutamate receptors
[3]
  agonist activity at cAMP-linked metabotropic glutamate receptors: agonist of PI-linked and cAMP-linked metabotropic glutamate receptors

## N[C@@]1(C(=O)O)CC[C@H]2[C@H](C(=O)O)[C@H]21 (racemic) [Compound 3, (1SR,2SR,5RS,6SR) 2-Aminobicyclo[3.1.0]hexane-2,6-dicarboxylic Acid]
[5]
  IC50: 320 nM

## O=C1CC2(CCCC2)CC(=O)N1CCCCN1CCN(c2ncccn2)CC1 [buspirone hydrochloride]
Long Evans rats [8]
  reduction of fear (increased startle response) associated with presentation of light: effective at reducing the fear (increased startle response)
Mice [10]
  reduction of fear of open spaces in elevated plus maze: reducing the fear of open spaces

## N[C@@]1(C(=O)O)CC[C@H]2[C@@H](C(=O)O)[C@H]21 (racemic) [Compound 8, (1SR,2SR,5RS,6RS) 2-Aminobicyclo[3.1.0]hexane-2,6-dicarboxylic Acid]
[5]
  IC50: 3200 nM

## NC1(C(=O)O)CCC2C(C(=O)O)C21 (single isomer, unassigned; (+)) [Compound 6, (+)-2-Aminobicyclo[3.1.0]hexane-2,6-dicarboxylic Acid]
Long Evans rats [1]; 3 mg/kg, p.o., compared to nicotine controls
  attenuation of heightened startle: significant attenuation
Long Evans rats [1]; Rattus norvegicus, ip, compared to nicotine controls, route printed i.p., read-out: ED50, attenuation of nicotine withdrawal-induced heightened startle
  ED50: 0.7 mg/kg
Long Evans rats [1]; pretreatment, nicotine withdrawal
  withdrawal-induced increase in startle responding after pretreatment: dose-dependent blockade
[4]
  EC50: 36 ± 15 nM
[5]
  IC50: 180 nM
[6]
  EC50: 55 ± 17 nM
Long Evans rats [9]; 0.1 and 0.3 mg/kg, p.o., compared to control responding
  attenuation of enhanced startle: significantly attenuated enhanced startle
Long Evans rats [9]; Rattus norvegicus, po, read-out: ED50, attenuation of diazepam withdrawal-enhanced startle, p.o., compared to control responding
  ED50: 0.1 mg/kg
Long Evans rats [9]; pretreatment, diazepam withdrawal
  expected increase in startle responding following cessation of diazepam, after pretreatment: blocked the expected increase in startle responding
Mice [11]; oral, 3 mg/kg
  nosepoke counts: significant increase
Mice [11]; oral, 1, 3 and 10 mg/kg
  open arm activity: significant increases
Mice [11]; oral, any dose
  closed arm activity counts: not significantly altered
